In brackets after ≈: the same amount, converted by molar mass.
Tests used:
[1] = test system: Pseudomonas aeruginosa; assay: Antimicrobial activity against Pseudomonas aeruginosa ATCC 27853 after 24 hrs by NCCLS-protocol based assay; assay type: functional; conditions: ATCC 27853, 24 h
[2] = test system: Pseudomonas aeruginosa; assay: Bactericidal activity against Pseudomonas aeruginosa 26305 clinical isolates incubated for 4 hrs followed by culture spread on agar plates and cultured overnight; assay type: functional; conditions: Pseudomonas aeruginosa, 26305, 4 h; read-out: MBC>99.9
[3] = test system: Pseudomonas aeruginosa; assay: Bactericidal activity against Pseudomonas aeruginosa PAO1 incubated for 4 hrs followed by culture spread on agar plates and cultured overnight; assay type: functional; conditions: PAO1, 4 h, read-out: MBC>99.9
[4] = test system: Escherichia coli; assay: Antimicrobial activity against Escherichia coli K88 after 24 hrs by NCCLS-protocol based assay; assay type: functional; conditions: K88, 24 h
[5] = test system: Escherichia coli; assay: Antimicrobial activity against Escherichia coli ATCC 25922 after 24 hrs by NCCLS-protocol based assay; assay type: functional; conditions: ATCC 25922, 24 h
[6] = test system: Salmonella typhimurium; assay: Bactericidal activity against Salmonella typhimurium ATCC 14028 incubated for 4 hrs followed by culture spread on agar plates and cultured overnight; assay type: functional, Salmonella enterica subsp. enterica serovar Typhimurium; conditions: Salmonella enterica, ATCC 14028, 4 h; read-out: MBC>99.9
[7] = test system: Pseudomonas aeruginosa; assay: Bactericidal activity against Pseudomonas aeruginosa 25349 clinical isolates incubated for 4 hrs followed by culture spread on agar plates and cultured overnight; assay type: functional; conditions: Pseudomonas aeruginosa, 25349, 4 h; read-out: MBC>99.9
[8] = test system: Pseudomonas aeruginosa; assay: Bactericidal activity against Pseudomonas aeruginosa CICC 21625 clinical isolates incubated for 4 hrs followed by culture spread on agar plates and cultured overnight; assay type: functional; conditions: CICC 21625, 4 h, read-out: MBC>99.9
[9] = test system: Escherichia coli; assay: Antimicrobial activity against Escherichia coli UB1005 after 24 hrs by NCCLS-protocol based assay; assay type: functional; conditions: UB1005, 24 h
[10] = test system: Salmonella typhimurium; assay: Antimicrobial activity against Salmonella typhimurium C7731 after 24 hrs by NCCLS-protocol based assay; assay type: functional, Salmonella enterica subsp. enterica serovar Typhimurium; conditions: Salmonella enterica, C7731, 24 h
[11] = test system: Pseudomonas aeruginosa; assay: Antimicrobial activity against Pseudomonas aeruginosa CICC 21625 clinical isolates after 24 hrs by NCCLS-protocol based assay; assay type: functional; conditions: CICC 21625, 24 h
[12] = test system: Pseudomonas aeruginosa; assay: Bactericidal activity against Pseudomonas aeruginosa CICC 21630 clinical isolates incubated for 4 hrs followed by culture spread on agar plates and cultured overnight; assay type: functional; conditions: CICC 21630, 4 h, read-out: MBC>99.9
[13] = test system: Acinetobacter baumannii; assay: Bactericidal activity against Acinetobacter baumannii incubated for 4 hrs followed by culture spread on agar plates and cultured overnight; assay type: functional; conditions: read-out: MBC>99.9
[14] = test system: Pseudomonas aeruginosa; assay: Antimicrobial activity against Pseudomonas aeruginosa 26305 clinical isolates after 24 hrs by NCCLS-protocol based assay; assay type: functional; conditions: Pseudomonas aeruginosa, 26305, 24 h
[15] = test system: Salmonella typhimurium; assay: Antimicrobial activity against Salmonella typhimurium ATCC 14028 after 24 hrs by NCCLS-protocol based assay; assay type: functional, Salmonella enterica subsp. enterica serovar Typhimurium; conditions: Salmonella enterica, ATCC 14028, 24 h
[16] = Bactericidal activity against Salmonella pullorum C7913 incubated for 4 hrs followed by culture spread on agar plates and cultured overnight; assay type: functional, Salmonella enterica subsp. enterica serovar Pullorum; conditions: Salmonella enterica, C7913, 4 h; read-out: MBC>99.9
[17] = test system: Pseudomonas aeruginosa; assay: Antimicrobial activity against Pseudomonas aeruginosa 25349 clinical isolates after 24 hrs by NCCLS-protocol based assay; assay type: functional; conditions: Pseudomonas aeruginosa, 25349, 24 h
[18] = test system: Salmonella typhimurium; assay: Bactericidal activity against Salmonella typhimurium C7731 incubated for 4 hrs followed by culture spread on agar plates and cultured overnight; assay type: functional, Salmonella enterica subsp. enterica serovar Typhimurium; conditions: Salmonella enterica, C7731, 4 h; read-out: MBC>99.9
[19] = test system: Pseudomonas aeruginosa; assay: Antimicrobial activity against Pseudomonas aeruginosa CICC 21630 clinical isolates after 24 hrs by NCCLS-protocol based assay; assay type: functional; conditions: CICC 21630, 24 h
[20] = test system: Escherichia coli; assay: Bactericidal activity against Escherichia coli K88 incubated for 4 hrs followed by culture spread on agar plates and cultured overnight; assay type: functional; conditions: K88, 4 h, read-out: MBC>99.9
[21] = test system: Escherichia coli; assay: Antimicrobial activity against Escherichia coli 078 after 24 hrs by NCCLS-protocol based assay; assay type: functional; conditions: Escherichia coli, 078, 24 h
[22] = test system: Escherichia coli; assay: Bactericidal activity against Escherichia coli 078 incubated for 4 hrs followed by culture spread on agar plates and cultured overnight; assay type: functional; conditions: Escherichia coli, 078, 4 h; read-out: MBC>99.9
[23] = test system: Escherichia coli; assay: Antimicrobial activity against Escherichia coli K99 after 24 hrs by NCCLS-protocol based assay; assay type: functional; conditions: K99, 24 h
[24] = test system: Pseudomonas aeruginosa; assay: Antimicrobial activity against Pseudomonas aeruginosa PAO1 after 24 hrs by NCCLS-protocol based assay; assay type: functional; conditions: PAO1, 24 h
[25] = test system: Escherichia coli; assay: Bactericidal activity against Escherichia coli K99 incubated for 4 hrs followed by culture spread on agar plates and cultured overnight; assay type: functional; conditions: K99, 4 h, read-out: MBC>99.9
[26] = test system: Escherichia coli; assay: Bactericidal activity against Escherichia coli ATCC 25922 incubated for 4 hrs followed by culture spread on agar plates and cultured overnight; assay type: functional; conditions: ATCC 25922, 4 h, read-out: MBC>99.9
[27] = test system: Pseudomonas aeruginosa; assay: Bactericidal activity against Pseudomonas aeruginosa ATCC 27853 incubated for 4 hrs followed by culture spread on agar plates and cultured overnight; assay type: functional; conditions: ATCC 27853, 4 h, read-out: MBC>99.9
[28] = test system: Acinetobacter baumannii; assay: Antimicrobial activity against Acinetobacter baumannii after 24 hrs by NCCLS-protocol based assay; assay type: functional
[29] = Antimicrobial activity against Salmonella pullorum C7913 after 24 hrs by NCCLS-protocol based assay; assay type: functional, Salmonella enterica subsp. enterica serovar Pullorum; conditions: Salmonella enterica, C7913, 24 h
[30] = test system: Klebsiella pneumoniae; assay: Bactericidal activity against Klebsiella pneumoniae incubated for 4 hrs followed by culture spread on agar plates and cultured overnight; assay type: functional; conditions: read-out: MBC>99.9
[31] = test system: Escherichia coli; assay: Bactericidal activity against Escherichia coli UB1005 incubated for 4 hrs followed by culture spread on agar plates and cultured overnight; assay type: functional; conditions: UB1005, 4 h, read-out: MBC>99.9
[32] = test system: Klebsiella pneumoniae; assay: Antimicrobial activity against Klebsiella pneumoniae after 24 hrs by NCCLS-protocol based assay; assay type: functional

Row | Structure (SMILES) | MIC95 [1] | MBC [2] | MBC [3] | MIC95 [4] | MIC95 [5] | MBC [6] | MBC [7] | MBC [8] | MIC95 [9] | MIC95 [10] | MIC95 [11] | MBC [12] | MBC [13] | MIC95 [14] | MIC95 [15] | MBC [16] | MIC95 [17] | MBC [18] | MIC95 [19] | MBC [20] | also measured
1 | NCC[C@H](O)C(=O)N[C@@H]1C[C@H](N)[C@@H](O[C@H]2O[C@H](CN)[C@@H](O)[C@H](O)[C@H]2O)[C@H](O)[C@H]1O[C@H]1O[C@H](CO)[C@@H](O)[C@H](N)[C@H]1O [AMIKACIN] | 0.125 µM (≈ 0.0732 µg/mL) | > 64 µM | 0.125 µM (≈ 0.0732 µg/mL) | 0.0625 µM (≈ 0.0366 µg/mL) | 0.0625 µM (≈ 0.0366 µg/mL) | 0.125 µM (≈ 0.0732 µg/mL) | 0.25 µM (≈ 0.146 µg/mL) | 0.25 µM (≈ 0.146 µg/mL) | 0.0625 µM (≈ 0.0366 µg/mL) | 0.0625 µM (≈ 0.0366 µg/mL) | 0.125 µM (≈ 0.0732 µg/mL) | 0.125 µM (≈ 0.0732 µg/mL) | 0.125 µM (≈ 0.0732 µg/mL) | > 64 µM | 0.125 µM (≈ 0.0732 µg/mL) | 0.0625 µM (≈ 0.0366 µg/mL) | 0.25 µM (≈ 0.146 µg/mL) | 0.125 µM (≈ 0.0732 µg/mL) | 0.125 µM (≈ 0.0732 µg/mL) | 0.0625 µM (≈ 0.0366 µg/mL) | MIC95 [21]: 0.0625 µM (≈ 0.0366 µg/mL); MBC [22]: 0.0625 µM (≈ 0.0366 µg/mL); MIC95 [23]: 0.0625 µM (≈ 0.0366 µg/mL); MIC95 [24]: 0.0625 µM (≈ 0.0366 µg/mL); MBC [25]: 0.125 µM (≈ 0.0732 µg/mL); MBC [26]: 0.125 µM (≈ 0.0732 µg/mL); MBC [27]: 0.25 µM (≈ 0.146 µg/mL); MIC95 [28]: 0.0625 µM (≈ 0.0366 µg/mL); MIC95 [29]: 0.0625 µM (≈ 0.0366 µg/mL); MBC [30]: 0.125 µM (≈ 0.0732 µg/mL); MBC [31]: 0.125 µM (≈ 0.0732 µg/mL); MIC95 [32]: 0.0625 µM (≈ 0.0366 µg/mL)
2 | CN[C@H](CC(C)C)C(=O)N[C@H]1C(=O)N[C@@H](CC(N)=O)C(=O)N[C@H]2C(=O)N[C@H]3C(=O)N[C@H](C(=O)N[C@H](C(=O)O)c4cc(O)cc(O)c4-c4cc3ccc4O)[C@H](O)c3ccc(c(Cl)c3)Oc3cc2cc(c3O[C@@H]2O[C@H](CO)[C@@H](O)[C@H](O)[C@H]2O[C@H]2C[C@](C)(N)[C@H](O)[C@H](C)O2)Oc2ccc(cc2Cl)[C@H]1O [VANCOMYCIN] | > 64 µM | > 64 µM | 16 µM (≈ 23.2 µg/mL) | 2 µM (≈ 2.9 µg/mL) | 8 µM (≈ 11.6 µg/mL) | 8 µM (≈ 11.6 µg/mL) | > 64 µM | > 64 µM | 16 µM (≈ 23.2 µg/mL) | 8 µM (≈ 11.6 µg/mL) | 64 µM (≈ 92.8 µg/mL) | 64 µM (≈ 92.8 µg/mL) | 2 µM (≈ 2.9 µg/mL) | 64 µM (≈ 92.8 µg/mL) | 8 µM (≈ 11.6 µg/mL) | 8 µM (≈ 11.6 µg/mL) | 64 µM (≈ 92.8 µg/mL) | 16 µM (≈ 23.2 µg/mL) | 32 µM (≈ 46.4 µg/mL) | 4 µM (≈ 5.8 µg/mL) | MIC95 [21]: 4 µM (≈ 5.8 µg/mL); MBC [22]: 4 µM (≈ 5.8 µg/mL); MIC95 [23]: 4 µM (≈ 5.8 µg/mL); MIC95 [24]: 8 µM (≈ 11.6 µg/mL); MBC [25]: 4 µM (≈ 5.8 µg/mL); MBC [26]: 16 µM (≈ 23.2 µg/mL); MBC [27]: > 64 µM; MIC95 [28]: 2 µM (≈ 2.9 µg/mL); MIC95 [29]: 8 µM (≈ 11.6 µg/mL); MBC [30]: 32 µM (≈ 46.4 µg/mL); MBC [31]: 16 µM (≈ 23.2 µg/mL); MIC95 [32]: 16 µM (≈ 23.2 µg/mL)

Source: ChEMBL document CHEMBL4316596, “Antimicrobial Peptides with High Proteolytic Resistance for Combating Gram-Negative Bacteria” (J Med Chem, 2019)
